Experimental data: ChEMBL document CHEMBL5729430, “ACLY inhibitors and uses thereof” (2022)
pIC50: −log10 of the molar value.

Target: T1, ATP-citrate synthase (Homo sapiens, UniProt P53396)
T1 sequence (P53396 whole entry): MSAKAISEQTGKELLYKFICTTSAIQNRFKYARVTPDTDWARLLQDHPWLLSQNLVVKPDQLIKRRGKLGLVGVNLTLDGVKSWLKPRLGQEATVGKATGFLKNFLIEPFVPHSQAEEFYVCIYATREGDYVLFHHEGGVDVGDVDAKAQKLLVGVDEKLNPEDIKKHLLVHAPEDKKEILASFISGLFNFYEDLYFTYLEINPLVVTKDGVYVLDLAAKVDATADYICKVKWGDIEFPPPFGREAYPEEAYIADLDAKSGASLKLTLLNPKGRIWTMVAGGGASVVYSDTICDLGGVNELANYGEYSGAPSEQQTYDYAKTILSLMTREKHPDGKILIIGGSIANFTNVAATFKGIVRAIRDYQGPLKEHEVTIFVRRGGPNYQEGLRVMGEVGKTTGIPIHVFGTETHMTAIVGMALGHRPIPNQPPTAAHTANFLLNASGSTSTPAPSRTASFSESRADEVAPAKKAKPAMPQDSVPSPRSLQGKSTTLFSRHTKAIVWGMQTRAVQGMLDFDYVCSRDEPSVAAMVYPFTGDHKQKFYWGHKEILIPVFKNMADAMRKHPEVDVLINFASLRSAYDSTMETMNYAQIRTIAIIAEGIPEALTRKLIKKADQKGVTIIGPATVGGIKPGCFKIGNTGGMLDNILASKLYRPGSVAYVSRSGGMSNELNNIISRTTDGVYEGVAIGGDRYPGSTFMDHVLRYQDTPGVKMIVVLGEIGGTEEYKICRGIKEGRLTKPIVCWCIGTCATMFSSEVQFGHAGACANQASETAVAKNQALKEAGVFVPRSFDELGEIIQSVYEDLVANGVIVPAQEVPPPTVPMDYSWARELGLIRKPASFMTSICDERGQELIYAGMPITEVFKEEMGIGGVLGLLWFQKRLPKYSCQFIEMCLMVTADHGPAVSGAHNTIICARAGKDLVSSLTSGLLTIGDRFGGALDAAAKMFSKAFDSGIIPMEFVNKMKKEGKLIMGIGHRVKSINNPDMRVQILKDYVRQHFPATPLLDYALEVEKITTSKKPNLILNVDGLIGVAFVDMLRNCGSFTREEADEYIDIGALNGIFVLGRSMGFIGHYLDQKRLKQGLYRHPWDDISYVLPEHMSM
Assay: ADP-Glo Assay: Compounds of the present invention were evaluated in an ADP-GLO assay as follows:a) Dilute cpd 1:3 in succession in DMSO by hand for each cpds for 12 ptsb) Add 0.1 μL diluted cpd solution to assay plate, each dose with 2 replicatesc) Centrifuge 1000 RPM for 1 mind) Add 5 μL ACL working solution to 384-well assay plate, centrifuge 1000 RPM for 1 mine) Incubate at 25° C. for 15 minf) Add 5 μL substrate working solution to initiate reactiong) Final ACL reaction concentrations: 3 nM ACL, 15 μM ATP, 3 μM CoA, 300 μM Citrate, 0.01% Brij35, 4 mM DTT, 1% DMSO;h) Reference final conc: 30 uM starting Conc, 3× dilution, 11+0 points. Test cpd conc: 30/100 uM starting Conc, 3× dilution, 11+0 points.i) Incubate at 25° C. for 60 minj) Add 10 μL ADP Glo reagent, centrifuge 1000 RPM for 1 mink) Incubate at 25° C. for 40 minl) Add 20 μL kinase detection reagent, centrifuge 1000 RPM for 1 minm) Incubate at 25° C. for 40 minn) Read on Envision for US LUM as RLU.

| pIC50 | Structure (SMILES) |
| --- | --- |
| > 6.30 | O=C(O)c1cc2cc(Cl)ccc2n1S(=O)(=O)c1cc(Cl)cc(Cl)c1 |
| < 4.70 | O=S(=O)(c1cc(Cl)cc(Cl)c1)n1c(-c2cncnc2)cc2cc(Cl)ccc21 |
